In ChEMBL document CHEMBL1154328, “New inhibitors of the complement system inspired in K76-COOH. A SAR study of filifolinol derivatives through modifications of the C3' position” (Bioorg Med Chem Lett, 2009):

experiment: Inhibition of serum complement system-mediated hemolysis of human RBCs; settings: not given; call rule not given here

| SMILES | IC50 |
| --- | --- |
| C[C@H]1CCCC(C)(C)[C@@]12Cc1cc(C(=O)O)ccc1O2 | Not Active |

same assay, conditions: read-out: IC50

| SMILES | IC50 |
| --- | --- |
| COC(=O)c1ccc2c(c1)C[C@@]1(O2)[C@@H](C)CC[C@@H](O)C1(C)C [FILIFOLINOL] | 2000 µM |
| C[C@H]1CC[C@@](O)(CC(O)CO)C(C)(C)[C@@]12Cc1cc(C(=O)O)ccc1O2 (stereo partly specified) [listing 1 of 2 here] | 3290 µM |
| CCCN[C@@H]1CC[C@H](C)[C@]2(Cc3cc(C(=O)O)ccc3O2)C1(C)C | 211 µM |
| C[C@H]1CC[C@H](O)C(C)(C)[C@@]12Cc1cc(C(=O)O)ccc1O2 | 12100 µM |
| CCCN[C@H]1CC[C@H](C)[C@]2(Cc3cc(C(=O)O)ccc3O2)C1(C)C | 2750 µM |
| C[C@H]1CC[C@@](O)(CC(O)CO)C(C)(C)[C@@]12Cc1cc(C(=O)O)ccc1O2 (stereo partly specified) [listing 2 of 2 here] | 480 µM |
| CCCO[C@@H]1CC[C@H](C)[C@]2(Cc3cc(C(=O)O)ccc3O2)C1(C)C | 548 µM |
| COc1ccc(C(=O)O)c2c1C[C@@](C)([C@H]1CC=C(C)CC1)O2 | 680 µM |
| CC1=CC[C@H]([C@]2(C)Cc3c(O)ccc(C(=O)O)c3O2)CC1 | 2150 µM |
| C[C@H]1CC[C@@H](OCCO)C(C)(C)[C@@]12Cc1cc(C(=O)O)ccc1O2 | 4400 µM |
| COc1ccc(C(=O)O)c2c1C[C@@](C)([C@@H]1CC[C@](C)(O)[C@H](O)C1)O2 | 1600 µM |
| C[C@H]1CC[C@@H](OCC(O)CO)C(C)(C)[C@@]12Cc1cc(C(=O)O)ccc1O2 (stereo partly specified) | 4720 µM |
| C[C@H]1CC[C@@H](O)C(C)(C)[C@@]12Cc1cc(C(=O)O)ccc1O2 | 517 µM |
| C[C@@H]1CCC2C(C)(C)[C@H](O)[C@H](O)C[C@]2(C)[C@@]12Cc1c(O)cc(C(=O)O)c(C=O)c1O2 (stereo partly specified) | 570 µM |
| C=CCO[C@@H]1CC[C@H](C)[C@]2(Cc3cc(C(=O)O)ccc3O2)C1(C)C | 3080 µM |
